Source: patent publication US11279733B2, “Peptide antibiotics” (priority 2017, dated 2022)
Converted amounts (≈) assume the structure as drawn. Positions of bridges follow the written chain, without caps; N, C: chain ends. Non-standard residues stand in square brackets, D forms with d. Residues, ends and D or L forms follow the SMILES beside them. *: point of attachment. Ala(benzothiazol-2-yl) = N[C@@H](Cc1nc2ccccc2s1)C(=O)O; Decanoyl(3R-OH) = CCCCCCC[C@@H](O)CC(=O)*; 2Nal = N[C@@H](Cc1ccc2ccccc2c1)C(=O)O; dIgl = N[C@@H](C(=O)O)C1Cc2ccccc2C1; 3Pal = N[C@@H](Cc1cccnc1)C(=O)O; 4Pal = N[C@@H](Cc1ccncc1)C(=O)O; dChg = N[C@@H](C(=O)O)C1CCCCC1; dDab = NCC[C@@H](N)C(=O)O; Octanoyl = CCCCCCCC(=O)*; Dab = NCC[C@H](N)C(=O)O

Columns and labels:
A. baumannii ATCC 19606 = settings: ATCC 19606
Procedure, shortened: (§1)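 Mid-log cultures grown in Mueller Hinton broth at 37° C were tested by 2-fold broth microdilution at 5×10^5 CFU/mL final. Compounds were dissolved in water and tested over a final range of 32 to 0.015 μg/mL.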

A. baumannii GN_093 PmxR = settings: GN 093 PmxR
Procedure, shortened: as §1

E. coli ATCC 25922 = settings: ATCC 25922
Procedure, shortened: as §1

K. pneumoniae ATCC 13883 = settings: ATCC 13883
Procedure, shortened: as §1

[1] = test system: K. pneumoniae ATCC 700603, MDR; settings: ATCC 700603
Procedure, shortened: as §1

[2] = test system: K. pneumoniae ATCC BAA-2146, NDM-1 pos; settings: ATCC BAA-2146
Procedure, shortened: as §1

[3] = test system: K. pneumoniae GN_102 PmxR; settings: GN 102 PmxR
Procedure, shortened: as §1

[4] = test system: K. pneumoniae GN_106, PmxR; settings: GN 106, PmxR
Procedure, shortened: as §1

P. aeruginosa ATCC 27853 = settings: ATCC 27853
Procedure, shortened: as §1

[5] = test system: P. aeruginosa GN_043, PmxR; settings: polymyxin-resistant
Procedure, shortened: as §1

[6] = test system: P. aeruginosa GN_105, PmxR; settings: GN 105, PmxR
Procedure, shortened: as §1

[7] = test system: S. aureus ATCC 25923, MSSA; settings: ATCC 25923
Procedure, shortened: as §1

in vitro = settings: human
Procedure, shortened: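 Cells (4000/well, pre-attached 24 h) then received 5 μM resazurin for 2 h, with fluorescence measured at ex 560/em 590.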

| SMILES | MIC A. baumannii ATCC 19606 (A. baumannii ATCC 19606) [µg/mL] | MIC A. baumannii GN_093 PmxR (A. baumannii GN_093 PmxR) [µg/mL] | MIC E. coli ATCC 25922 (E. coli ATCC 25922) [µg/mL] | MIC K. pneumoniae ATCC 13883 (K. pneumoniae ATCC 13883) [µg/mL] | MIC K. pneumoniae ATCC 700603, MDR [1] [µg/mL] | MIC K. pneumoniae ATCC BAA-2146, NDM-1 pos [2] [µg/mL] | MIC K. pneumoniae GN_102 PmxR [3] [µg/mL] | MIC K. pneumoniae GN_106, PmxR [4] [µg/mL] | MIC P. aeruginosa ATCC 27853 (P. aeruginosa ATCC 27853) [µg/mL] | MIC P. aeruginosa GN_043, PmxR [5] [µg/mL] | MIC P. aeruginosa GN_105, PmxR [6] [µg/mL] | MIC S. aureus ATCC 25923, MSSA [7] [µg/mL] | CC50 at 24 h (in vitro) [µM] |
| --- | --- | --- | --- | --- | --- | --- | --- | --- | --- | --- | --- | --- | --- |
| CCCCCCC[C@@H](O)CC(=O)N[C@H](CCN)C(=O)N[C@H]1CCNC(=O)[C@H](Cc2c[nH]c3ccccc23)NC(=O)[C@H](CCN)NC(=O)[C@H](CCN)NC(=O)[C@H](CC(C)C)NC(=O)[C@@H](C2CCCCC2)NC(=O)[C@H](CCN)NC1=O [compound 8899, 3(R)OH-nC9CO-D-Dab-cyc[L-Dab-L-Dab-D-Chg-L-Leu-L-Dab-L-Dab-L-Trp]] ({Decanoyl(3R-OH)}-[dDab][Dab][Dab][dChg]L[Dab][Dab]W; lactam 2-C) | 16 (≈ 14.4 µM) | 16 (≈ 14.4 µM) | 4 (≈ 3.61 µM) | 8 (≈ 7.21 µM) | 4 (≈ 3.61 µM) | 4 (≈ 3.61 µM) | 8 (≈ 7.21 µM) | 16 (≈ 14.4 µM) | 4 (≈ 3.61 µM) | 4 (≈ 3.61 µM) | 2 (≈ 1.8 µM) | 8 (≈ 7.21 µM) | 64 |
| CCCCCCCC(=O)N[C@H](CCN)C(=O)N[C@H]1CCNC(=O)[C@H](Cc2c[nH]c3ccccc23)NC(=O)[C@H](CCN)NC(=O)[C@H](CCN)NC(=O)[C@H](CC(C)C)NC(=O)[C@@H](C2Cc3ccccc3C2)NC(=O)[C@H](CCN)NC1=O [compound 8900, nC7CO-D-Dab-cyc[L-Dab-L-Dab-D-indanylgly-L-Leu-L-Dab-L-Dab-L-Trp]] (Octanoyl-[dDab][Dab][Dab][dIgl]L[Dab][Dab]W; lactam 2-C) | 32 (≈ 29.1 µM) | >32 | 4 (≈ 3.64 µM) | 16 (≈ 14.6 µM) | 8 (≈ 7.28 µM) | 8 (≈ 7.28 µM) | 16 (≈ 14.6 µM) | 16 (≈ 14.6 µM) | 4 (≈ 3.64 µM) | 4 (≈ 3.64 µM) | 8 (≈ 7.28 µM) | 8 (≈ 7.28 µM) | 115 |
| CCCCCCCC(=O)N[C@H](CCN)C(=O)N[C@H]1CCNC(=O)[C@H](Cc2c[nH]c3ccccc23)NC(=O)[C@H](CCN)NC(=O)[C@H](CCN)NC(=O)[C@H](CC(C)C)NC(=O)[C@@H](Cc2ccccc2)NC(=O)[C@H](CCN)NC1=O [compound 8901, nC7CO-D-Dab-cyc[L-Dab-L-Dab-D-Phe-L-Leu-L-Dab-L-Dab-L-Trp]] (Octanoyl-[dDab][Dab][Dab][dF]L[Dab][Dab]W; lactam 2-C) | 32 (≈ 29.8 µM) | >32 | 8 (≈ 7.45 µM) | 8 (≈ 7.45 µM) | 8 (≈ 7.45 µM) | 8 (≈ 7.45 µM) | 32 (≈ 29.8 µM) | 32 (≈ 29.8 µM) | 2 (≈ 1.86 µM) | 2 (≈ 1.86 µM) | 8 (≈ 7.45 µM) | 16 (≈ 14.9 µM) | > 300 |
| CCCCCCC[C@@H](O)CC(=O)N[C@H](CCN)C(=O)N[C@H]1CCNC(=O)[C@H](Cc2ccncc2)NC(=O)[C@H](CCN)NC(=O)[C@H](CCN)NC(=O)[C@H](CC(C)C)NC(=O)[C@@H](Cc2ccccc2)NC(=O)[C@H](CCN)NC1=O [compound 8906, 3(R)OH-nC9CO-D-Dab-cyc[L-Dab-L-Dab-D-Phe-L-Leu-L-Dab-L-Dab-L-Ala(4py)]] ({Decanoyl(3R-OH)}-[dDab][Dab][Dab][dF]L[Dab][Dab][4Pal]; lactam 2-C) | >32 | >32 | 4 (≈ 3.71 µM) | 4 (≈ 3.71 µM) | 4 (≈ 3.71 µM) | 8 (≈ 7.41 µM) | 16 (≈ 14.8 µM) | 16 (≈ 14.8 µM) | 1 (≈ 0.926 µM) | 0.5 (≈ 0.463 µM) | 2 (≈ 1.85 µM) | >32 | > 300 |
| CCCCCCC[C@@H](O)CC(=O)N[C@H](CCN)C(=O)N[C@H]1CCNC(=O)[C@H](Cc2cccnc2)NC(=O)[C@H](CCN)NC(=O)[C@H](CCN)NC(=O)[C@H](CC(C)C)NC(=O)[C@@H](Cc2ccccc2)NC(=O)[C@H](CCN)NC1=O [compound 8907, 3(R)OH-nC9CO-D-Dab-cyc[L-Dab-L-Dab-D-Phe-L-Leu-L-Dab-L-Dab-L-Ala(3py)]] ({Decanoyl(3R-OH)}-[dDab][Dab][Dab][dF]L[Dab][Dab][3Pal]; lactam 2-C) | >32 | >32 | 4 (≈ 3.71 µM) | 4 (≈ 3.71 µM) | 4 (≈ 3.71 µM) | 8 (≈ 7.41 µM) | 32 (≈ 29.6 µM) | 8 (≈ 7.41 µM) | 1 (≈ 0.926 µM) | 1 (≈ 0.926 µM) | 1 (≈ 0.926 µM) | >32 | > 300 |
| CCCCCCC[C@@H](O)CC(=O)N[C@H](CCN)C(=O)N[C@H]1CCNC(=O)[C@H](Cc2ccc3ccccc3c2)NC(=O)[C@H](CCN)NC(=O)[C@H](CCN)NC(=O)[C@H](CC(C)C)NC(=O)[C@@H](Cc2ccccc2)NC(=O)[C@H](CCN)NC1=O [compound 8908, 3(R)OH-nC9CO-D-Dab-cyc[L-Dab-L-Dab-D-Phe-L-Leu-L-Dab-L-Dab-L-Ala(2Naphthyl)]] ({Decanoyl(3R-OH)}-[dDab][Dab][Dab][dF]L[Dab][Dab][2Nal]; lactam 2-C) | 4 (≈ 3.54 µM) | 4 (≈ 3.54 µM) | 2 (≈ 1.77 µM) | 2 (≈ 1.77 µM) | 4 (≈ 3.54 µM) | 4 (≈ 3.54 µM) | 4 (≈ 3.54 µM) | 4 (≈ 3.54 µM) | 4 (≈ 3.54 µM) | 4 (≈ 3.54 µM) | 2 (≈ 1.77 µM) | 4 (≈ 3.54 µM) | 39 |
| CCCCCCC[C@@H](O)CC(=O)N[C@H](CCN)C(=O)N[C@H]1CCNC(=O)[C@H](Cc2nc3ccccc3s2)NC(=O)[C@H](CCN)NC(=O)[C@H](CCN)NC(=O)[C@H](CC(C)C)NC(=O)[C@@H](Cc2ccccc2)NC(=O)[C@H](CCN)NC1=O [compound 8910, 3(R)OH-nC9CO-D-Dab-cyc[L-Dab-L-Dab-D-Phe-L-Leu-L-Dab-L-Dab-L-Ala(Bth)]] ({Decanoyl(3R-OH)}-[dDab][Dab][Dab][dF]L[Dab][Dab][Ala(benzothiazol-2-yl)]; lactam 2-C) | 8 (≈ 7.05 µM) | 4 (≈ 3.52 µM) | 2 (≈ 1.76 µM) | 4 (≈ 3.52 µM) | 4 (≈ 3.52 µM) | 4 (≈ 3.52 µM) | 8 (≈ 7.05 µM) | 4 (≈ 3.52 µM) | 2 (≈ 1.76 µM) | 4 (≈ 3.52 µM) | 2 (≈ 1.76 µM) | 4 (≈ 3.52 µM) | 47 |
| CCCCCCC[C@@H](O)CC(=O)N[C@H](CCN)C(=O)N[C@H]1CCNC(=O)[C@H](Cc2c[nH]cn2)NC(=O)[C@H](CCN)NC(=O)[C@H](CCN)NC(=O)[C@H](CC(C)C)NC(=O)[C@@H](Cc2ccccc2)NC(=O)[C@H](CCN)NC1=O [compound 8911, 3(R)OH-nC9CO-D-Dab-cyc[L-Dab-L-Dab-D-Phe-L-Leu-L-Dab-L-Dab-L-His]] ({Decanoyl(3R-OH)}-[dDab][Dab][Dab][dF]L[Dab][Dab]H; lactam 2-C) | >32 | >32 | 8 (≈ 7.49 µM) | >32 | 8 (≈ 7.49 µM) | 16 (≈ 15 µM) | >32 | 32 (≈ 30 µM) | 2 (≈ 1.87 µM) | 2 (≈ 1.87 µM) | 16 (≈ 15 µM) | >32 | > 300 |
